Test results reported in patent publication US5900434A, “Method for inhibiting the production of interleukin-1 or tumor necrosis factor-α by administering acanthoic acid” (Korea Institute of Science and Technology, priority 1994, dated 1999).

Assays:
Format in all cases: cell-based
[1] = tested on: H2O2 production in human monocytes and macrophages; assay: Production of H2O2 in silica-stimulated human monocytes and macrophages; details: 10 μg/ml, 1 hour, 100 μg/ml silica, FIG. 5
Method: Normal human peripheral blood was heparin-treated and diluted with equal amount of Hank's balanced salt solution (HBSS: Ca^2+ and Mg^2+ free). The diluted blood was put into a centrifuge tube containing therein Ficoll-Hypaque(Sigma, St. Louis, Mo., U.S.A.) layer having a density of 1.077 piled up on Ficoll-Hypaque layer having a density of 1.119, and then centrifuged at 700×g for 30 minutes to obtain monocytes from the layer between Ficoll-Hypaque layer having a density of 1.077 and serum layer, and neutrophils from the layer between Ficoll-Hypaque layer having a density of 1.077 and that having a density of 1.119. The separated cells were washed twice with 4° C. HBSS(Ca^2+ and Mg^2+ free) and suspended in RPMI 1640 medium(Gibco, Grand Island, N.Y., U.S.A.) containing 10% fetal bovine serum(FBS, Hyclone, Logan, Utah, U.S.A.). […] The amount of H2 O2 was determined by a microassay employing 96-well microplate as follows. […] When the incubation was completed, 3M NaOH was added to the wells in an amount of 25 μl/well to stop the reaction and O.D. was measured at 620 nm by using ELISA reader(Dynatech Lab. Inc.) to determine the change of colors with respect to the oxidation of phenol. The amount of H2 O2 was determined by employing a standard curve prepared by diluted H2 O2 (Sigma). […]

[2] = tested on: TNF-α production in human monocytes and macrophages; assay: Inhibition of TNF-α production in human monocytes and macrophages (L929 cell lytic assay); details: 5 μg/ml or more of acanthoic acid; silica-stimulated; FIG. 3
Method: The monocytes and macrophages obtained in Reference Example 1 (1) were incubated with 0.1 to 100 μg/ml of acanthoic acid for an hour and treated with 100 μg/ml of silica for 48 hours. The culture was centrifuged to obtain supernatant, which was then dialyzed against PBS. The activity of IL-1 in the dialyzate was determined in accordance with the method of Gery described in Cellular Immunology, 64, 293-303(1981) as follows. Human monocytes and macrophages were treated with acanthoic acid in accordance with the same procedures as in Example 1, and the activity of TNF-α was measured by cell lytic assay in accordance with the method of Aggarwal as described in J. Biol. Chem., 260, 2345(1985). TNF-α dependent L929 fibroblasts(ATCC CCLl) were suspended in RPMI 1640 medium containing 5% FBS and added to the wells of 96-well incubation plate in an amount of 3×10^4 cells/well. The plate was incubated at 37° C. for 2 hours to make the cells adhere to the incubation plate. […] Then, 100 μl of 33% acetic acid was added to each of the wells to release the dye, and then the O.D. of sample obtained from each of the wells was determined by using ELISA reader with 570 nm reading filter and 405 nm reference filter. The amount of released dye was calculated from the O.D. value with reference to that of the internal control group, i.e., rHu TNF-α(Genzyme).

[3] = tested on: NIH3T3 fibroblasts; assay: Inhibition of proliferation of NIH3T3 fibroblasts (3H-thymidine); details: dialyzate of monocytes/macrophages treated with 10 μg/ml acanthoic acid and silica; 5 days; FIG. 6
Method: NIH3T3 fibroblast(ATCC CRL 1658) was cultured in RPMI 1640 medium containing 10% FBS under the same conditions as described above. Acanthoic acid was added in various concentrations to 5×10^5 /ml of cells obtained in the above procedures, and the cells were precultured at 37° C. for 1 hour in 5% CO2 incubator. Then, 1 ml each of silica(100 μg/ml) and RPMI 1640 medium containing 2% FBS were added thereto and the cells were cultured under the same conditions as above for 48 hours. The culture supernatant was collected and centrifuged at 1,500 rpm for 10 minutes to remove the cells and silica. The obtained supernatant was dialyzed against PBS and filtered by 0.2 μm filtration syringe, and the filtrate was stored at -20° C. Fibrosis is caused largely by the proliferation of fibroblasts or by the synthesis of collagen. To confirm the effect of acanthoic acid on the proliferation of fibroblasts, human monocytes and macrophages were treated with 10 μg/ml of acanthoic acid and cultured according to the procedure as described in Reference Example 1 (3). The culture was dialyzed against PBS, and 50 μl of the dialyzate was added to the wells of an incubation plate. […] The amount of ^3 H-thymidine incorporated in the cell was determined by employing liquid scintillation counter(FIG. 6). […]

## C=C[C@@]1(C)CC=C2C(CCC3[C@](C)(C(=O)O)CCC[C@@]23C)C1 (single isomer, unassigned; (-)) [acanthoic acid, (-)-pimara-9(11),15-diene-19-oic acid]
[1]
  amount of H2O2: decrease significantly
[2]
  inhibition of production of TNF-α: at least 90%
[3]
  proliferation of fibroblasts: inhibited significantly
